Data: patent US7491501B2, “Methods for identifying modulators of intracellular aggregate formation” (Auburn University, priority 2003, dated 2009)

Assays:
[1] = system: p62 aggregates in HEK cells; test: p62 aggregate formation by confocal/fluorescence microscopy in transfected HEK cells; format: cell-based, Human
Protocol: Immunofluorescence staining—All steps were done at room temperature unless stated otherwise. The inclusion bodies were placed on poly-L-lysine coated 12 well slides (Cel-line/Erie Scientific Co., Portmouth, N.H.) and let partially dry. Inclusion bodies on the slides were fixed for 10 min in 3% paraformaldehyde (Electron Microscopy Sciences, Fort Washington, Pa.) and permeabilized with 0.1% Triton X-100 in PBS for 15 minutes. The inclusion bodies were incubated in blocking buffer (3% non fat dry milk in PBS) for 1 h, prior to incubation with primary antibodies at 4° C. overnight. After washing with PBS, the secondary antibody (Molecular Probes Inc., Eugene, Oreg.) in blocking buffer was applied for 1 h. After extensive washing in PBS, the samples were mounted using Vectashield (Vector Laboratories Inc., Burlingame, Calif.). The cells were fixed with 3% paraformaldehyde and processed similar to that of inclusion staining.
Cells were incubated with rabbit anti-myc IgG or mouse anti-HA IgG and labeled with Texas Red-conjugated anti-rabbit antibodies (red) or Oregon Green-conjugated anti-mouse antibodies (green), respectively. Merged images with overlapping immunoreactivity are shown in yellow. Note that cells expressing p62 lacking its UBA domain (p62ΔUBA) fail to form aggregates or to colocalize with ubiquitin. All experiments were replicated three independent times with similar results. Small aggregates of p62 colocalized with ubiquitin which was dependant upon the presence of a UBA domain but not the N-terminal portion of p62. Aggregation may impair the proteasome or, alternatively, impaired proteasome activity may seed aggregates. Alternatively, impairment of the proteasome may enhance the formation of p62 aggregates containing polyubiquitin.
In summary, through its UBA domain, p62 Interacts with polyubiquitinated substrates, and the UBA domain is necessary for aggregate formation.
Since TRAF6 localized to the large aggregates along with polyubiquitin (FIG. 2B), these aggregates may represent the failed attempt of the cell to rid itself of TRAF6-K63-polyubiquitinated substrates sequestered through interaction with the UBA domain. […] Altogether, these findings reveal that p62 binds proteins with K63 chains through its UBA domain and that p62 aggregates sequester TRAF6 as well as K63-polyubiquitinated substrates.
To further determine if the coassociation of tau-p62-TRAF6 and UbcH7 could be recapitulated in vitro, a cotransfection approach was undertaken. […] HEK cells were transfected with GFP-p62 followed by treatment or not with Aβ1-42 and Aβ42-1 peptides. […] This is consistent with the observation that microtubule dependent transport is important for the formation of p62 inclusions as assessed by treatment of the cells with nocodazole, a microtubule disrupting agent (9).

TrkA = test: NGF-dependent TrkA ubiquitination and TrkA complex formation in PC12 cells (FIG. 15B, 15C); format: cell-based; conditions: TrkA immunoprecipitation
Protocol: The peptide containing the TRAF6-binding motif in p62 along with the hydrophobic sequence containing the cell-permeable motif from Kaposi fibroblast growth factor signal sequence […]-[…] (SEQ ID NO. 4) and control peptide […]-[…] (SEQ ID NO. 5) was synthesized. As a preliminary step, PC12 cells were pretreated with different concentrations (75-300 μM) of TRAF6 peptide for 5 hours followed by NGF stimulation for 15 min and immunoprecipitation of TRAF6 followed by Western blotting for p62. […] To address whether TRAF6 peptide affects the interaction of p62 and UbcH7 with TRAF6, PC12 cells were treated with or without 150 μM of control peptide or TRAF6 peptide for 5 hours and then stimulated with NGF for 15 min. By immunoprecipitating TRAF6, TRAF6 peptide (150 μM) abrogated the interaction of p62 with TRAF6, but not UbcH7, upon NGF treatment (FIG. 8A). […] The ability of the TRAF6 peptide to impair the ubiquitination process was investigated. Lysates recovered from NGF treated cells were immunoprecipitated with TrkA receptor antibody and blotted for ubiquitin or the receptor (FIG. 15B). […] The ability of the peptide to interrupt the formation of the functional TrkA-p62-TRAF6-UbcH7 complex on NGF stimulation as well was also investigated. TrkA was immunoprecipitated and blotted for the presence of each protein in the complex (FIG. 15C).

tau polyubiquitination = test: NGF-induced tau polyubiquitination in PC12 cells (FIG. 13A); format: cell-based; conditions: control not shown
Protocol: The region spanning amino acids 225-251 is necessary for the interaction of p62 with TRAF6. The peptide containing TRAF6 binding motif in p62 along with the hydrophobic sequence containing the cell-permeable motif from Kaposi fibroblast growth factor sequence, […]-[…] (SEQ ID NO. 4) and control peptide […]-[…] (SEQ ID NO. 5) was synthesized. As a preliminary step, PC12 cells were pretreated with various concentrations of peptide for 5 h, followed by NGF stimulation for 15 min and immunoprecipitation with TRAF6 and western blotted with p62. […] The peptide was then tested for its ability to block NGF-induced tau polyubiquitination (FIG. 13A).

[2] = system: internalization of NGF by PC12 cells; test: Internalization of NGF, 125I-NGF binding assay in PC12 cells (FIG. 15D); format: cell-based; conditions: PC12 cells pretreated with peptide (150 μM); control not shown
Protocol: Additionally, PC12 cells were pretreated or not with TRAF6 peptide (150 μM) followed by measurement of internalized receptor employing 125I-NGF binding assay (FIG. 15D). […] Similarly, the level of internalized NGF was measured in PC12 cells transfected with wild-type ubiquitin, K48R or K63R ubiquitin mutants (FIG. 15E). Transfection of ubiquitin, or K48R mutant was without any effect on internalization of NGF. By comparison, transfection of K63R ubiquitin mutant totally abrogated internalization of the ligand. […] Thus, p62 serves as an adaptor, as well as, a scaffold for TRAF6-directed ubiquitination and K63 chains play a signaling role for internalization and sorting of the receptor.

Substance: AAVALLPAVLLALLAP-ESASGPSEDPSVNFLK (AAVALLPAVLLALLAPESASGPSEDPSVNFLK; artificial sequence for cell permeable peptide) [TRAF6 peptide]
- reduction in the formation of large aggregates ([1]; pretreatment with inhibitory dose of peptide prior to ALLN, GFP-p62 HEK cells): 60%
- effect on size of the p62 aggregates ([1]; pretreatment with peptide prior to ALLN (FIG. 2D), control peptide data not shown): decrease in the size of the p62 aggregates
- TRAF6 and UbcH7 interacting with TrkA (TrkA; NGF stimulation): eliminated
- interaction of p62 and TrkA (TrkA; NGF stimulation): did not disrupt
- NGF-dependent ubiquitination of TrkA (TrkA; NGF treated): effectively abolish
- NGF-induced tau polyubiquitination (tau polyubiquitination): completely abrogated
- internalization of NGF [2]: significantly blocked
